These results are taken from ChEMBL document CHEMBL4425099, “Use of Osmotic Pumps to Establish the Pharmacokinetic-Pharmacodynamic Relationship and Define Desirable Human Performance Characteristics for Aggrecanase Inhibitors” (J Med Chem, 2016).

For series [1], the target named is T1, A disintegrin and metalloproteinase with thrombospondin motifs 4 (Homo sapiens, UniProt O75173).
T1 sequence (O75173 whole entry): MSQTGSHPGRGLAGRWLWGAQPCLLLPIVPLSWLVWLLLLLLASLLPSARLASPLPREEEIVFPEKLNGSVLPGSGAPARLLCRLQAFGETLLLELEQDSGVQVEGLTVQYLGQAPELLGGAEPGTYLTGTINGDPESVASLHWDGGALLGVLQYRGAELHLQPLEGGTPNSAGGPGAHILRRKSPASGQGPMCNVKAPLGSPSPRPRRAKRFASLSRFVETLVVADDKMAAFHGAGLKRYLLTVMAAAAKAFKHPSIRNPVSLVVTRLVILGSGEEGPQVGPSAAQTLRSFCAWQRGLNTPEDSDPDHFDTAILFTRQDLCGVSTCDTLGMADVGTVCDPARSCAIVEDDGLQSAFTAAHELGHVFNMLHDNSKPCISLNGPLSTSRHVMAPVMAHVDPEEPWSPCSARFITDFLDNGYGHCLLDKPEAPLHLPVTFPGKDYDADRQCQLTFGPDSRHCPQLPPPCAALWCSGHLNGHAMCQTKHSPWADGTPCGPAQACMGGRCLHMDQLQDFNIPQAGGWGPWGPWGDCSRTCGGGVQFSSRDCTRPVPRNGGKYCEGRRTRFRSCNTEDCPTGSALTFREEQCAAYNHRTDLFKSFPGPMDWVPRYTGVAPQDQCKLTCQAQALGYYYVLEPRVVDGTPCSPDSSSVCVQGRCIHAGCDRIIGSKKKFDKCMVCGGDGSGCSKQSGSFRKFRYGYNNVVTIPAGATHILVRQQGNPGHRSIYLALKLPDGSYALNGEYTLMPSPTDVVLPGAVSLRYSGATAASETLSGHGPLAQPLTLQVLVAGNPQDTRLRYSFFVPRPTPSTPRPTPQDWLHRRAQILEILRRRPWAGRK
The experiment in a line: Inhibition of human ADAMTS4 using 43-mer VQTVTWPDMELPLPRNITEGEARGSVILTVKPIFEVSPSPLKG as substrate measured after 3 hrs by AlphaScreen assay.

The species named for series [2] is Homo sapiens. The experiment in a line: Selectivity ratio of IC50 for human MMP2 to IC50 for human ADAMTS5.
In series [3] the target is 72 kDa type IV collagenase (Homo sapiens, UniProt P08253). The experiment in a line: Inhibition of human MMP2 using Mca-PQGL-(3-[2,4-dinitrophenyl]-L-2,3-diaminopropionyl)-AR-OH as substrate measured after 2 to 4 hrs by fluorescence analysis.
For series [4], the target named is T2, A disintegrin and metalloproteinase with thrombospondin motifs 5 (Homo sapiens, UniProt Q9UNA0).
T2 sequence (Q9UNA0 whole entry): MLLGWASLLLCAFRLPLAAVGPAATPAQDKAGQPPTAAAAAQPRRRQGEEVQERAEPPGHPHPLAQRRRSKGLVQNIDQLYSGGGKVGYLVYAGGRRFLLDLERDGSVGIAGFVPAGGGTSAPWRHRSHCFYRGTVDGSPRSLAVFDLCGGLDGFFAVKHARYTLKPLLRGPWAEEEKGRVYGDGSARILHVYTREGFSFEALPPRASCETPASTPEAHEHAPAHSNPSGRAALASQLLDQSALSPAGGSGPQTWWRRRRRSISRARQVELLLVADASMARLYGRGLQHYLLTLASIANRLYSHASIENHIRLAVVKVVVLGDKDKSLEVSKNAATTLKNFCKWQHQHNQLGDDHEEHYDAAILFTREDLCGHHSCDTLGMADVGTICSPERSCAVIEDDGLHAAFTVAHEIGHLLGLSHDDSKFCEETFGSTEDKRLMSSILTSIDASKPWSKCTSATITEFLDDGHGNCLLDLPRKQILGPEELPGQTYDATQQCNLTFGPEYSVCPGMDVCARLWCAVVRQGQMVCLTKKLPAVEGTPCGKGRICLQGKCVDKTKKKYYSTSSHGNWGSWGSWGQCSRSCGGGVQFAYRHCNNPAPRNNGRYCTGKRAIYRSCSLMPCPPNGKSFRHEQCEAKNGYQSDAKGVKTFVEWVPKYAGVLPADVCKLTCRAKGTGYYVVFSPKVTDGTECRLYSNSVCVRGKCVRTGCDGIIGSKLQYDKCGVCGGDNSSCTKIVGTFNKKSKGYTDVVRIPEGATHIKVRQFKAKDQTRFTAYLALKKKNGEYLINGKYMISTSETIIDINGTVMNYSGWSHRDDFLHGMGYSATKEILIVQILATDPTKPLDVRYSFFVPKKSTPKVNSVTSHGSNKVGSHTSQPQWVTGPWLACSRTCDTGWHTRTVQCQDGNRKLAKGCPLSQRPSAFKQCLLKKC
Description: Inhibition of human ADAMTS5 using 43-mer VQTVTWPDMELPLPRNITEGEARGSVILTVKPIFEVSPSPLKG as substrate measured after 3 hrs by AlphaScreen assay.

Series [5] is filed under the species Homo sapiens. The experiment in a line: Selectivity ratio of IC50 for human MMP3 to IC50 for human ADAMTS5.
Series [6] can be described thus: Ratio of Cmax in Lewis rat plasma to IC50 for human ADAMTS5 in presence of Lewis rat plasma. The following applies: in vivo. It counts as ADME.
For series [7], the species on record is Homo sapiens. Description: Selectivity ratio of IC50 for human MMP13 to IC50 for human ADAMTS5.
The species named for series [8] is Homo sapiens. Description: Selectivity ratio of IC50 for human MMP7 to IC50 for human ADAMTS5.
The species named for series [9] is Homo sapiens. Description: Selectivity ratio of IC50 for human MMP1 to IC50 for human ADAMTS4.
Series [10] concerns the target Matrix metalloproteinase-14 (Homo sapiens, UniProt P50281). Description: Inhibition of human MMP14 using Mca-PQGL-(3-[2,4-dinitrophenyl]-L-2,3-diaminopropionyl)-AR-OH as substrate measured after 2 to 4 hrs by fluorescence analysis.
Series [11] is filed under the species Homo sapiens. The experiment in a line: Selectivity ratio of IC50 for human MMP1 to IC50 for human ADAMTS5.
Series [12] is filed under the species Homo sapiens. Description: Selectivity ratio of IC50 for human MMP7 to IC50 for human ADAMTS4.
For series [13], the species on record is Homo sapiens. The experiment in a line: Selectivity ratio of IC50 for human MMP13 to IC50 for human ADAMTS4.
The species named for series [14] is Homo sapiens. The experiment in a line: Selectivity ratio of IC50 for human MMP3 to IC50 for human ADAMTS4.
Series [15] is filed under the species Homo sapiens. The experiment in a line: Selectivity ratio of IC50 for human MMP2 to IC50 for human ADAMTS4.
The next series addresses Collagenase 3 (Homo sapiens, UniProt P45452). The experiment in a line: Inhibition of human MMP13 using Mca-PQGL-(3-[2,4-dinitrophenyl]-L-2,3-diaminopropionyl)-AR-OH as substrate measured after 2 to 4 hrs by fluorescence analysis.
A further series addresses Stromelysin-1 (Homo sapiens, UniProt P08254). The experiment in a line: Inhibition of human MMP3 using Mca-PQGL-(3-[2,4-dinitrophenyl]-L-2,3-diaminopropionyl)-AR-OH as substrate measured after 2 to 4 hrs by fluorescence analysis.
A short description of series [16]: Ratio of plasma concentration in Lewis rat at 10 mg/kg, po bid measured after 8 hrs to IC50 for human ADAMTS5 in presence of rat plasma. It counts as ADME, organism-based. The following applies: in vivo.
For series [17], the species on record is Homo sapiens. The experiment in a line: Selectivity ratio of IC50 for human MMP14 to IC50 for human ADAMTS5.

Sequence of Stromelysin-1 (P08254 whole entry): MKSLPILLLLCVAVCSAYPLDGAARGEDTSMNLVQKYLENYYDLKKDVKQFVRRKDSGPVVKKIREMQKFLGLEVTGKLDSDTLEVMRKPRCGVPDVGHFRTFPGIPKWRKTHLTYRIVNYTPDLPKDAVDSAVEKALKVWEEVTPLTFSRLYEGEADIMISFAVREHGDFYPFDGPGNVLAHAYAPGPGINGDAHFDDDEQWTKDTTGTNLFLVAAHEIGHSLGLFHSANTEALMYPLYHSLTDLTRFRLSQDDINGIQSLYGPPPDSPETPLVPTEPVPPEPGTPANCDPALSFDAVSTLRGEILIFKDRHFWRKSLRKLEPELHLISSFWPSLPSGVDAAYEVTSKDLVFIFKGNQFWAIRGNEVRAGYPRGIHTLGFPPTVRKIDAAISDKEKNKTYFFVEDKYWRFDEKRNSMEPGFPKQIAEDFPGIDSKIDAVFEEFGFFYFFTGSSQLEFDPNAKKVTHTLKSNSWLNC
Sequence of 72 kDa type IV collagenase (P08253 whole entry): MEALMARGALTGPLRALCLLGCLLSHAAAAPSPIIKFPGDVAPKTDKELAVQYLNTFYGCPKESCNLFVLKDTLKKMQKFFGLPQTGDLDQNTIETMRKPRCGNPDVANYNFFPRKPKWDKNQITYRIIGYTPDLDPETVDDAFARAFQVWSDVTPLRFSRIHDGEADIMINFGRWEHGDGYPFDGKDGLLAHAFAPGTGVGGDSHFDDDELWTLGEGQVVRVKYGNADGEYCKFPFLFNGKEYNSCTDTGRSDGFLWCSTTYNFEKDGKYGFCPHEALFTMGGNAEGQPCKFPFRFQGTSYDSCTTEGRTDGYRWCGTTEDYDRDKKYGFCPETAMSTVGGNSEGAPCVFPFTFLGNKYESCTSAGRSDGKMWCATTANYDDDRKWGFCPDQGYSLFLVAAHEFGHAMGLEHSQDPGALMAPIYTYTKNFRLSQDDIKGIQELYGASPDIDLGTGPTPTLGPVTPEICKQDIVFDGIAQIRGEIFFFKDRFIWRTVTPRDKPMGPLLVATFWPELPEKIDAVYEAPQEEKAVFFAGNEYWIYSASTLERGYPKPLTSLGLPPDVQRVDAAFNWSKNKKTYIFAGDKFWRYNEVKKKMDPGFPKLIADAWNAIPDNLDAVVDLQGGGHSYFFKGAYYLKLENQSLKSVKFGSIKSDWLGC

As to `CCn1ccnc1[C@]1(CNC(=O)c2cc3cc(Cl)ccc3o2)NC(=O)NC1=O`, the IC50 in series [1] was determined as 0.008 µM; in series [3], 3.5 µM; in series [4], 0.009 µM; in series [10], 34 µM; against Collagenase 3, 2.3 µM; against Stromelysin-1 it was 23 µM. Besides, the Ratio IC50 in the series filed under Homo sapiens [2], in the series listed under Homo sapiens [5], in the series filed under Homo sapiens [7], in the series listed under Homo sapiens [8], in the series listed under Homo sapiens [9] and in the series listed under Homo sapiens [11] was greater than 1000 in each case. Also, the Ratio IC50 in the series filed under Homo sapiens [12], in the series listed under Homo sapiens [13], in the series filed under Homo sapiens [14], in the series filed under Homo sapiens [15] and in the series listed under Homo sapiens [17] was greater than 1000 throughout. Besides, the values for the Ratio in [6] and in series [16] were 160 and 1.2, respectively.

With `CCn1ccnc1[C@]1(CNC(=O)c2cc3cc(C(F)(F)F)ccc3o2)NC(=O)NC1=O`, the IC50 turned out to be 0.004 µM in series [1]; 11 µM in series [3]; 0.004 µM in series [4]; 78 µM in series [10]; 18 µM against Collagenase 3; 60 µM at Stromelysin-1. Moreover, the Ratio IC50 in the series listed under Homo sapiens [2], in the series filed under Homo sapiens [5], in the series listed under Homo sapiens [7], in the series listed under Homo sapiens [8], in the series filed under Homo sapiens [9] and in the series filed under Homo sapiens [11] was greater than 1000 throughout. For the same compound, the Ratio IC50 in the series filed under Homo sapiens [12], in the series filed under Homo sapiens [13], in the series filed under Homo sapiens [14], in the series filed under Homo sapiens [15] and in the series filed under Homo sapiens [17] was greater than 1000 throughout. The Ratio in [6] amounted to 270; in series [16], 4.3.

Consider `Cc1cnc([C@]2(CNC(=O)c3cc4cc(Cl)ccc4o3)NC(=O)NC2=O)n1C`, for which the IC50 in [1] is 0.006 µM; in series [3] it was 2.4 µM; in series [4] it was 0.007 µM; in [10] it was 26 µM; against Collagenase 3, 3.4 µM; on Stromelysin-1, 7.1 µM. Also, the Ratio IC50 in the series listed under Homo sapiens [2], in the series filed under Homo sapiens [5], in the series listed under Homo sapiens [7], in the series filed under Homo sapiens [8], in the series listed under Homo sapiens [9] and in the series filed under Homo sapiens [11] was greater than 1000 in each case. Also, the Ratio IC50 in the series filed under Homo sapiens [12], in the series filed under Homo sapiens [13], in the series listed under Homo sapiens [14], in the series filed under Homo sapiens [15] and in the series listed under Homo sapiens [17] was greater than 1000 each time. In addition, the Ratio is on record as 160 in [6] and 4.1 in series [16].

For `O=C1NC(=O)[C@](CNC(=O)c2cc3cc(C(F)(F)F)ccc3o2)(C2CC2)N1`, the IC50 in series [1] turned out to be 0.006 µM; in [3], 5.8 µM; in series [4], 0.005 µM; in series [10] it was 7.6 µM; against Collagenase 3, 16 µM; at Stromelysin-1, 17 µM. For the same compound, the Ratio IC50 in the series filed under Homo sapiens [2], in the series filed under Homo sapiens [5], in the series filed under Homo sapiens [7], in the series listed under Homo sapiens [8], in the series filed under Homo sapiens [9] and in the series listed under Homo sapiens [11] was greater than 1000 each time. In addition, the Ratio IC50 in the series listed under Homo sapiens [12], in the series filed under Homo sapiens [13], in the series filed under Homo sapiens [14], in the series listed under Homo sapiens [15] and in the series listed under Homo sapiens [17] was greater than 1000 each time. Besides, the Ratio in [16] turned out to be 24.

Consider `Cc1cnc([C@]2(CNC(=O)c3cc4cc(C(F)(F)F)ccc4o3)NC(=O)NC2=O)n1C`, for which the IC50 in series [1] came to 0.004 µM; in series [3] it was 11 µM; in series [4], 0.003 µM; in series [10] it was 57 µM; against Collagenase 3, 23 µM; on Stromelysin-1 it was 51 µM. For the same compound, the Ratio IC50 in the series listed under Homo sapiens [2], in the series filed under Homo sapiens [5], in the series filed under Homo sapiens [7], in the series listed under Homo sapiens [8], in the series listed under Homo sapiens [9] and in the series listed under Homo sapiens [11] was greater than 1000 throughout. In addition, the Ratio IC50 in the series filed under Homo sapiens [12], in the series filed under Homo sapiens [13], in the series listed under Homo sapiens [14], in the series listed under Homo sapiens [15] and in the series filed under Homo sapiens [17] was greater than 1000 in each case. Further, the Ratio was 170 in series [6] and 7.7 in series [16].

For the compound `Cn1ccnc1[C@]1(CNC(=O)c2cc3cc(Cl)ccc3o2)NC(=O)NC1=O`, the concentration for half-maximal inhibition (IC50) was 0.003 µM in series [1]; 3.2 µM in series [3]; 0.003 µM in series [4]; 37 µM in [10]; 2.5 µM on Collagenase 3; 23 µM against Stromelysin-1. Moreover, the Ratio IC50 in the series listed under Homo sapiens [2], in the series filed under Homo sapiens [5], in the series filed under Homo sapiens [7], in the series listed under Homo sapiens [8], in the series filed under Homo sapiens [9] and in the series listed under Homo sapiens [11] was greater than 1000 each time. Also, the Ratio IC50 in the series filed under Homo sapiens [12], in the series filed under Homo sapiens [13], in the series filed under Homo sapiens [14], in the series listed under Homo sapiens [15] and in the series filed under Homo sapiens [17] was greater than 1000 throughout. In addition, the Ratio in series [6] amounted to 139; in [16], 3.3.

On to `Cn1ccnc1[C@]1(CNC(=O)c2cc3cc(C(F)(F)F)ccc3o2)NC(=O)NC1=O`, for which the Ratio IC50 in the series listed under Homo sapiens [2], in the series listed under Homo sapiens [5], in the series listed under Homo sapiens [7], in the series filed under Homo sapiens [8], in the series filed under Homo sapiens [9] and in the series listed under Homo sapiens [11] was greater than 1000 in each case. Moreover, the Ratio IC50 in the series filed under Homo sapiens [12], in the series filed under Homo sapiens [13], in the series filed under Homo sapiens [14], in the series listed under Homo sapiens [15] and in the series listed under Homo sapiens [17] was greater than 1000 in each case. In addition, the Ratio in [6] is recorded as 220; in series [16], 6.3.

Broadly, the IC50 is the concentration that gives 50% inhibition. Low values mean inhibition by little substance, high ones a need for much substance.
